For two compounds, fold induction and IC50 results are on record in patent publication EP4653437A2 (Innovo Therapeutics Inc., priority 2023, dated 2024).

Each structure is given as a SMILES string.

One assay has as its system A549 cells. Nature of the assay: Measurement of PGE2-increasing activity in A549 cells (IL-1β stimulated, PGE2 quantified in supernatant). It is filed as cell-based. The settings on record: Homo sapiens, 24 h; concentration of 1 µM of each compound; IL-1β treated A549 cells; read-out: Increased PGE2 production in A549 cells. Put shortly: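 A549 cells grown 24 h in F12K with 10% FBS, then switched to serum-free medium with or without IL-1β and compound (0.1% DMSO final). After 24 h at 37 °C, 5% CO2, supernatant PGE2 quantified by immunoassay.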

The target in a further assay is T1, human 15-PGDH (Homo sapiens, UniProt P15428).
T1 construct: purchased R&D System 5660-DH
T1 sequence (P15428 1-266): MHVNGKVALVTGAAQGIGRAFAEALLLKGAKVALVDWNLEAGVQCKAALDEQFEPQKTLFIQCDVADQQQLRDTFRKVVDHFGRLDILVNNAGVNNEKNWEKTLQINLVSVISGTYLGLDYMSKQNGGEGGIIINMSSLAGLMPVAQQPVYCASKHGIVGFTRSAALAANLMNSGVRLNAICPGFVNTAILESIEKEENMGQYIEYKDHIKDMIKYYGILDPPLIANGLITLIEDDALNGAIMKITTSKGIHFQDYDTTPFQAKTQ
Nature of the assay: Evaluation of 15-PGDH inhibitory activity (fluorescence enzyme assay, NAD+/PGE2). The class given is biochemical. Conditions: human 15-PGDH enzyme, fluorescence Vmax. On the procedure: 15-PGDH inhibition activity of Example compounds was measured as follows. 6.7 ng of human 15-PGDH (R&D System# 5660-DH) enzyme (10 µL) was added to a black 96 well plate, 60 µL of buffer (50 mM Tris-HCl, pH 7.5, 0.01% Tween 20) was added, and 10 µL of 200 µM β-Nicotinamide adenine dinucleotide sodium salt (Sigma, Cat# N0632-5G) was added. 10 µL of (10x) compound solution in DMSO was added and reacted for 10 minutes at room temperature.

For `Cc1nc(-c2cc(-c3cccc4c(C(=O)N5CCCCC5)cnn34)ccc2F)no1` [Example 276, [7-[4-fluoro-3-(5-methyl-1,2,4-oxadiazol-3-yl)phenyl]pyrazolo[1,5-a]pyridin-3-yl]-(1-piperidyl)methanone], the fold induction at 1 µM in the assay on A549 cells is above 1.5. Also, the IC50 on human 15-PGDH is at most 100 nM.

For `CNC(=O)c1ccc(-c2cccc3c(C(=O)N4CCCCC4)cnn23)cc1` [Example 58, N-methyl-4-(3-(piperidine-1-carbonyl)pyrazolo[1,5-a]pyridin-7-yl)benzamide], the fold induction at 1 µM in the assay on A549 cells was above 1.5. The compound further gave an IC50 against human 15-PGDH of at most 100 nM.
